Test results: PubChem BioAssay (NCI)
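Values below derive from 48-hour exposures of cells grown in 96-well plates, with endpoints linearly interpolated between the two concentrations bracketing the appropriate inhibition level. Abbreviation: GI50, concentration required for 50% inhibition of growth. Definition used: TGI = concentration required for complete inhibition of growth.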

Tests used:
Assay in all cases: growth of human tumour cells (NCI), 48 h
KM12 colon = system: KM12 colon
T-47D breast = system: T-47D breast
DU-145 prostate = system: DU-145 prostate
SW-620 colon = system: SW-620 colon
SNB-75 CNS = system: SNB-75 CNS
IGROV1 ovarian = system: IGROV1 ovarian
ACHN renal = system: ACHN renal
NCI-H522 lung = system: NCI-H522 lung
CAKI-1 renal = system: CAKI-1 renal
UO-31 renal = system: UO-31 renal
SF-268 CNS = system: SF-268 CNS
A549 NSCLC = system: A549 NSCLC
PC-3 prostate = system: PC-3 prostate
K-562 leukemia = system: K-562 leukemia
RXF 393 renal = system: RXF 393 renal
HOP-62 NSCLC = system: HOP-62 NSCLC
786-0 renal = system: 786-0 renal
SF-539 CNS = system: SF-539 CNS
UACC-257 melanoma = system: UACC-257 melanoma
MDA-MB-231 breast = system: MDA-MB-231 breast
SK-MEL-5 melanoma = system: SK-MEL-5 melanoma
NCI-H226 lung = system: NCI-H226 lung
OVCAR-5 ovarian = system: OVCAR-5 ovarian
MCF7 breast = system: MCF7 breast
U251 CNS = system: U251 CNS
HCT-116 colon = system: HCT-116 colon
LOX IMVI melanoma = system: LOX IMVI melanoma
SK-MEL-28 melanoma = system: SK-MEL-28 melanoma
SK-OV-3 ovarian = system: SK-OV-3 ovarian
SN12C renal = system: SN12C renal
CCRF-CEM leukemia = system: CCRF-CEM leukemia
UACC-62 melanoma = system: UACC-62 melanoma
MDA-MB-435 = system: MDA-MB-435
HL-60(TB) leukemia = system: HL-60(TB) leukemia
NCI/ADR-RES ovarian = system: NCI/ADR-RES ovarian
OVCAR-3 ovarian = system: OVCAR-3 ovarian
M14 melanoma = system: M14 melanoma
HOP-92 NSCLC = system: HOP-92 NSCLC
OVCAR-8 ovarian = system: OVCAR-8 ovarian
MALME-3M melanoma = system: MALME-3M melanoma
SNB-19 CNS = system: SNB-19 CNS
BT-549 breast = system: BT-549 breast
NCI-H23 lung = system: NCI-H23 lung
OVCAR-4 ovarian = system: OVCAR-4 ovarian
NCI-H460 lung = system: NCI-H460 lung
MOLT-4 leukemia = system: MOLT-4 leukemia
SR leukemia = system: SR leukemia
COLO 205 colon = system: COLO 205 colon
HS 578T breast = system: HS 578T breast
EKVX NSCLC = system: EKVX NSCLC
SK-MEL-2 melanoma = system: SK-MEL-2 melanoma
HCC-2998 colon = system: HCC-2998 colon
HCT-15 colon = system: HCT-15 colon
RPMI-8226 leukemia = system: RPMI-8226 leukemia
SF-295 CNS = system: SF-295 CNS
A498 renal = system: A498 renal
TK-10 renal = system: TK-10 renal
HT29 colon = system: HT29 colon

Compound: CCCCOC(=O)c1c(C)[nH]c(/C=C2\N=C(c3ccc[nH]3)C=C2OC)c1C
- GI50 (KM12 colon): 110 nM
- TGI (KM12 colon): 1860 nM
- GI50 (T-47D breast): 347 nM
- TGI (T-47D breast): 1900 nM
- GI50 (DU-145 prostate): 274 nM
- TGI (DU-145 prostate): 6370 nM
- GI50 (SW-620 colon): 56.9 nM
- TGI (SW-620 colon): 1440 nM
- GI50 (SNB-75 CNS): 124 nM
- TGI (SNB-75 CNS): 892 nM
- GI50 (IGROV1 ovarian): 232 nM
- TGI (IGROV1 ovarian): 2390 nM
- GI50 (ACHN renal): 146 nM
- TGI (ACHN renal): 1300 nM
- GI50 (NCI-H522 lung): 174 nM
- TGI (NCI-H522 lung): 1680 nM
- GI50 (CAKI-1 renal): 71 nM
- TGI (CAKI-1 renal): 3850 nM
- GI50 (UO-31 renal): 137 nM
- TGI (UO-31 renal): 337 nM
- GI50 (SF-268 CNS): 242 nM
- TGI (SF-268 CNS): 9070 nM
- GI50 (A549 NSCLC): 205 nM
- TGI (A549 NSCLC): 15200 nM
- GI50 (PC-3 prostate): 136 nM
- TGI (PC-3 prostate): > 24900 nM
- GI50 (K-562 leukemia): 155 nM
- TGI (K-562 leukemia): 8610 nM
- GI50 (RXF 393 renal): 537 nM
- TGI (RXF 393 renal): 3070 nM
- GI50 (HOP-62 NSCLC): 416 nM
- TGI (HOP-62 NSCLC): 8040 nM
- GI50 (786-0 renal): 267 nM
- TGI (786-0 renal): 3090 nM
- GI50 (SF-539 CNS): 245 nM
- TGI (SF-539 CNS): 2000 nM
- GI50 (UACC-257 melanoma): 488 nM
- TGI (UACC-257 melanoma): 3350 nM
- GI50 (MDA-MB-231 breast): 56 nM
- TGI (MDA-MB-231 breast): 764 nM
- GI50 (SK-MEL-5 melanoma): 100 nM
- TGI (SK-MEL-5 melanoma): 265 nM
- GI50 (NCI-H226 lung): 310 nM
- TGI (NCI-H226 lung): 1720 nM
- GI50 (OVCAR-5 ovarian): 337 nM
- TGI (OVCAR-5 ovarian): 2470 nM
- GI50 (MCF7 breast): 162 nM
- TGI (MCF7 breast): 2650 nM
- GI50 (U251 CNS): 120 nM
- TGI (U251 CNS): 1760 nM
- GI50 (HCT-116 colon): 41.2 nM
- TGI (HCT-116 colon): 1360 nM
- GI50 (LOX IMVI melanoma): 29.6 nM
- TGI (LOX IMVI melanoma): 102 nM
- GI50 (SK-MEL-28 melanoma): 509 nM
- TGI (SK-MEL-28 melanoma): 2800 nM
- GI50 (SK-OV-3 ovarian): 1450 nM
- TGI (SK-OV-3 ovarian): 14400 nM
- GI50 (SN12C renal): 226 nM
- TGI (SN12C renal): 2540 nM
- GI50 (CCRF-CEM leukemia): 58.3 nM
- TGI (CCRF-CEM leukemia): > 20400 nM
- GI50 (UACC-62 melanoma): 127 nM
- TGI (UACC-62 melanoma): 339 nM
- GI50 (MDA-MB-435): 123 nM
- TGI (MDA-MB-435): 1740 nM
- GI50 (HL-60(TB) leukemia): 581 nM
- TGI (HL-60(TB) leukemia): 4000 nM
- GI50 (NCI/ADR-RES ovarian): 121 nM
- TGI (NCI/ADR-RES ovarian): 2920 nM
- GI50 (OVCAR-3 ovarian): 151 nM
- TGI (OVCAR-3 ovarian): 1170 nM
- GI50 (M14 melanoma): 171 nM
- TGI (M14 melanoma): 2010 nM
- GI50 (HOP-92 NSCLC): 163 nM
- TGI (HOP-92 NSCLC): 637 nM
- GI50 (OVCAR-8 ovarian): 216 nM
- TGI (OVCAR-8 ovarian): 13800 nM
- GI50 (MALME-3M melanoma): 1160 nM
- TGI (MALME-3M melanoma): 2820 nM
- GI50 (SNB-19 CNS): 1180 nM
- TGI (SNB-19 CNS): > 56100 nM
- GI50 (BT-549 breast): 650 nM
- TGI (BT-549 breast): 12100 nM
- GI50 (NCI-H23 lung): 254 nM
- TGI (NCI-H23 lung): 2600 nM
- GI50 (OVCAR-4 ovarian): 177 nM
- TGI (OVCAR-4 ovarian): 5040 nM
- GI50 (NCI-H460 lung): 61.3 nM
- TGI (NCI-H460 lung): 2000 nM
- GI50 (MOLT-4 leukemia): 138 nM
- TGI (MOLT-4 leukemia): 9850 nM
- GI50 (SR leukemia): 82.1 nM
- TGI (SR leukemia): 1470 nM
- GI50 (COLO 205 colon): 274 nM
- TGI (COLO 205 colon): 1670 nM
- GI50 (HS 578T breast): 147 nM
- TGI (HS 578T breast): 1190 nM
- GI50 (EKVX NSCLC): 460 nM
- TGI (EKVX NSCLC): 4880 nM
- GI50 (SK-MEL-2 melanoma): 103 nM
- TGI (SK-MEL-2 melanoma): 381 nM
- GI50 (HCC-2998 colon): 138 nM
- TGI (HCC-2998 colon): 2060 nM
- GI50 (HCT-15 colon): 53 nM
- TGI (HCT-15 colon): 1290 nM
- GI50 (RPMI-8226 leukemia): 175 nM
- TGI (RPMI-8226 leukemia): 2040 nM
- GI50 (SF-295 CNS): 253 nM
- TGI (SF-295 CNS): 1320 nM
- GI50 (A498 renal): 342 nM
- TGI (A498 renal): 2160 nM
- GI50 (TK-10 renal): 185 nM
- TGI (TK-10 renal): 5070 nM
- GI50 (HT29 colon): 41 nM
- TGI (HT29 colon): 1720 nM
